The values that follow come from patent US20240277717A1, “APPLICATION OF GANCICLOVIR IN PREPAPRATION OF MEDICINE FOR TREATING ALLERGIC RHINITIS” (Union Hospital, Tongji Medical College, Huazhong University …, priority 2023, published 2024).

For this assay, the system named is AR patients. As to the kind of experiment: Specific cases: earlier treatment reported in the patient history. In kind it is in vivo, human.

With Omalizumab, the “nasal symptoms after earlier treatment (patient history)” value is recorded as “did not ameliorate” (Case 4, injected, before GCV) and “without any improvement” (Case 5, before GCV).
